The source of these data is patent publication US9814704B2, “Substituted pyrrolo[2,3-b]pyridines as MLK inhibitors” (The University of Rochester, priority 2008, dated 2017).

Sequence of MLK3 (Q16584 whole entry): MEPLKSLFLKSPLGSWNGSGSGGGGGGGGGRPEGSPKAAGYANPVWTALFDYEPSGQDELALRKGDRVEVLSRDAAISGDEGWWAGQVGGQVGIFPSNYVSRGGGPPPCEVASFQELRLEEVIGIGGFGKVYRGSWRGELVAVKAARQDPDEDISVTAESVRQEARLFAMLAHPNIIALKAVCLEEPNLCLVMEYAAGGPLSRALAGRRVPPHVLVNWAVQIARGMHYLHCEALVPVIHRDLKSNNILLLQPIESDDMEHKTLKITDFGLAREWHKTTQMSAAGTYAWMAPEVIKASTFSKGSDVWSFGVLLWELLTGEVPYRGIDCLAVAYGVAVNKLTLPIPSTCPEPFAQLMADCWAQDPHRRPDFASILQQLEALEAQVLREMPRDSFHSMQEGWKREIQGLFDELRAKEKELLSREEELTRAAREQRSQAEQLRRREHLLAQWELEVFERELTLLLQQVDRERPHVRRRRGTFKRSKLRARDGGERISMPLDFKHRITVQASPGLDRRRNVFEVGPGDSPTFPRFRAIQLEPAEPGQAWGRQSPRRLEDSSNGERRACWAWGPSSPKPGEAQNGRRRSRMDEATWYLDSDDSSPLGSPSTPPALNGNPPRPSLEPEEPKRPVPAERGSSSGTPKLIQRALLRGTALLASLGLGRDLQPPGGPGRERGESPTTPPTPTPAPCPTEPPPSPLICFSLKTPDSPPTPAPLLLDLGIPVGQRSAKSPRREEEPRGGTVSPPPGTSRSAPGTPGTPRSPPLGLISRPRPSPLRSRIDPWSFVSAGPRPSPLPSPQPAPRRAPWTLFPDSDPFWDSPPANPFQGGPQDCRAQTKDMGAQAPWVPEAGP

One assay concerns the target MLK3 (Homo sapiens (Human), UniProt Q16584). Put plainly: Radiometric Filter Plate MLK3 Assay. Format: biochemical. The settings on record: 200 ng (130 nM) MLK3, 1 μM inactive MKK7b, 2 μM cold ATP (Km), 33P ATP, twenty minute incubation; read-out: MK3 IC50. The protocol: Radiometric Filter Plate MLK3 Assay
After a twenty minute incubation, the reactions were washed through filter plates and read on a scintillation counter. Results are shown in Table 4 below, in which +++ indicates ≦0.1 μM, ++ indicates >0.1 μM and ≦1 μM, and + indicates >1 μM.
For orientation: IC50 means the concentration that inhibits the measured activity by half. Take `COc1cc(OC)c(-c2cnc3[nH]c(=O)n(C4CCCC4)c3n2)c(OC)c1` [Example 94, 1-cyclopentyl-6-(2,4,6-trimethoxyphenyl)-1H-imidazo[4,5-b]pyrazin-2(3H)-one]: the IC50 was more than 1000 nM.
On the same count and under the same terms, to `Cc1cc(C)cc(-c2cnc3[nH]c(=O)n(-c4ccc5cn[nH]c5c4)c3n2)c1` [Example 95, 6-(3,5-dimethylphenyl)-1-(1H-indazol-6-yl)-1H-imidazo[4,5-b]pyrazin-2(3H)-one] belongs more than 1000 nM.
Regarding `O=c1[nH]c2ncc(-c3ccncc3)nc2n1-c1ccc2scnc2c1` [Example 98, 1-(benzo[d]thiazol-5-yl)-6-(pyridin-4-yl)-1H-imidazo[4,5-b]pyrazin-2(3H)-one], the IC50 was more than 1000 nM.
The same measure, in the same setting: the result for `Cc1cc(C)cc(-c2cnc3[nH]c(=O)n(-c4ccc5scnc5c4)c3n2)c1` [Example 99, 1-(benzo[d]thiazol-5-yl)-6-(3,5-dimethylphenyl)-1H-imidazo[4,5-b]pyrazin-2(3H)-one] reads more than 1000 nM; that for `O=c1[nH]c2ncc(-c3ccc(N4CCOCC4)cc3)nc2n1-c1ccc2scnc2c1` [Example 100, 1-(benzo[d]thiazol-5-yl)-6-(4-morpholinophenyl)-1H-imidazo[4,5-b]pyrazin-2(3H)-one], more than 1000 nM.
Regarding `COc1cc(-c2cnc3[nH]c(=O)n(C4CCc5ccccc54)c3n2)cc(OC)c1OC` (stereo not shown) [Example 101, 1-(2,3-dihydro-1H-inden-1-yl)-6-(3,4,5-trimethoxyphenyl)-1H-imidazo[4,5-b]pyrazin-2(3H)-one], the half-inhibitory concentration (IC50) was more than 1000 nM.
For the molecule `COc1cc(-c2cnc3[nH]c(=O)n(-c4ccc5[nH]cnc5c4)c3n2)cc(OC)c1OC` [Example 102, 1-(1H-benzo[d]imidazol-5-yl)-6-(3,4,5-trimethoxyphenyl)-1H-imidazo[4,5-b]pyrazin-2(3H)-one], the IC50 is less than 100 nM.
The same measure, in the same setting: the result for `COc1cc(-c2cnc3[nH]c(=O)n(-c4ccc(N5CCOCC5)nc4)c3n2)cc(OC)c1OC` [Example 109, 1-(6-morpholinopyridin-3-yl)-6-(3,4,5-trimethoxyphenyl)-1H-imidazo[4,5-b]pyrazin-2(3H)-one] reads more than 1000 nM.
In the case of `COc1cc(-c2cnc3[nH]c(=O)n(C4Cc5ccccc5C4)c3n2)cc(OC)c1OC` [Example 110, 1-(2,3-dihydro-1H-inden-2-yl)-6-(3,4,5-trimethoxyphenyl)-1H-imidazo[4,5-b]pyrazin-2(3H)-one], the IC50 was less than 100 nM.
Still for that read-out and setting: to `COc1cc(-c2cnc3[nH]c(=O)n(-c4cnc5[nH]ccc5c4)c3n2)cc(OC)c1OC` [Example 112, 1-(1H-pyrrolo[2,3-b]pyridin-5-yl)-6-(3,4,5-trimethoxyphenyl)-1H-imidazo[4,5-b]pyrazin-2(3H)-one] belongs less than 100 nM.
Still for that read-out and setting: to `COc1cc(-c2cnc3[nH]c(=O)n(-c4ccc5cc[nH]c5c4)c3n2)cc(OC)c1OC` [Example 113, 1-(1H-indol-6-yl)-6-(3,4,5-trimethoxyphenyl)-1H-imidazo[4,5-b]pyrazin-2(3H)-one] belongs less than 100 nM; to `Nc1ccc(-c2cnc3[nH]c(=O)n(C4CCCC4)c3n2)cn1` [Example 117, 6-(6-aminopyridin-3-yl)-1-cyclopentyl-1H-imidazo[4,5-b]pyrazin-2(3H)-one], more than 1000 nM; to `COc1cc(-c2nc3c(nc2Cl)[nH]c(=O)n3CC2CC2)cc(OC)c1OC` [Example 119, 5-chloro-1-(cyclopropylmethyl)-6-(3,4,5-trimethoxyphenyl)-1H-imidazo[4,5-b]pyrazin-2(3H)-one], more than 1000 nM.
Same read-out and setting: the result for `COc1cc(-c2cnc3c(c2)C(CC2CC2)C(=O)N3)cc(OC)c1OC` (stereo not shown) [Example 123, 3-(cyclopropylmethyl)-5-(3,4,5-trimethoxyphenyl)-1H-pyrrolo[2,3-b]pyridin-2(3H)-one] reads 100 to 1000 nM.

Still in this assay, the particulars now being: read-out: MK3 IC50.
`COc1cc(-c2cnc3[nH]c(=O)n(-c4ccc5scnc5c4)c3n2)cc(OC)c1OC` [Example 96, 1-(benzo[d]thiazol-5-yl)-6-(3,4,5-trimethoxyphenyl)-1H-imidazo[4,5-b]pyrazin-2(3H)-one]: the IC50 lay within 100 to 1000 nM.
Turning to `O=c1[nH]c2ncc(-c3ccc(O)cc3)nc2n1-c1ccc2scnc2c1` [Example 97, 1-(benzo[d]thiazol-5-yl)-6-(4-hydroxyphenyl)-1H-imidazo[4,5-b]pyrazin-2(3H)-one], the IC50 was 100 to 1000 nM.
Still for that read-out and setting: to `COc1ccc(-c2cnc3[nH]c(=O)n(-c4ccc5[nH]cnc5c4)c3n2)cc1OC` [Example 103, 1-(1H-benzo[d]imidazol-5-yl)-6-(3,4-dimethoxyphenyl)-1H-imidazo[4,5-b]pyrazin-2(3H)-one] belongs 100 to 1000 nM.
Still for that read-out and setting: the result for `O=c1[nH]c2ncc(-c3ccc(N4CCOCC4)cc3)nc2n1-c1ccc2[nH]cnc2c1` [Example 104, 1-(1H-benzo[d]imidazol-5-yl)-6-(4-morpholinophenyl)-1H-imidazo[4,5-b]pyrazin-2(3H)-one] reads 100 to 1000 nM; that for `COc1cc(-c2cnc3[nH]c(=O)n(-c4ccccc4)c3n2)cc(OC)c1OC` [Example 105, 1-phenyl-6-(3,4,5-trimethoxyphenyl)-1H-imidazo[4,5-b]pyrazin-2(3H)-one], 100 to 1000 nM; that for `COc1ccc(-c2cnc3[nH]c(=O)n(-c4ccccc4)c3n2)cc1OC` [Example 106, 6-(3,4-dimethoxyphenyl)-1-phenyl-1H-imidazo[4,5-b]pyrazin-2(3H)-one], 100 to 1000 nM.
Same read-out and setting: to `COc1cc(-c2cnc3[nH]c(=O)n(CC4CC4)c3n2)ccc1OCCN1CCOCC1` [Example 107, 1-(cyclopropylmethyl)-6-(3-methoxy-4-(2-morpholinoethoxy)phenyl)-1H-imidazo[4,5-b]pyrazin-2(3H)-one] belongs 100 to 1000 nM; to `COc1cc(-c2cnc3[nH]c(=O)n(C4CCCC4)c3n2)ccc1OCCN1CCOCC1` [Example 108, 1-cyclopentyl-6-(3-methoxy-4-(2-morpholinoethoxy)phenyl)-1H-imidazo[4,5-b]pyrazin-2(3H)-one], 100 to 1000 nM; to `COc1ccc(-c2cnc3[nH]c(=O)n(-c4cnc5[nH]ccc5c4)c3n2)cc1OC` [Example 111, 6-(3,4-dimethoxyphenyl)-1-(1H-pyrrolo[2,3-b]pyridin-5-yl)-1H-imidazo[4,5-b]pyrazin-2(3H)-one], 100 to 1000 nM.
For `COc1cc(-c2cnc3[nH]c(=O)n(-c4ccc(O)cc4)c3n2)cc(OC)c1OC` [Example 114, 1-(4-hydroxyphenyl)-6-(3,4,5-trimethoxyphenyl)-1H-imidazo[4,5-b]pyrazin-2(3H)-one], the IC50 lay within 100 to 1000 nM.
As for `COc1ccc(-c2cnc3[nH]c(=O)n(-c4ccc(O)cc4)c3n2)cc1OC` [Example 115, 6-(3,4-dimethoxyphenyl)-1-(4-hydroxyphenyl)-1H-imidazo[4,5-b]pyrazin-2(3H)-one], the concentration for half-maximal inhibition (IC50) lay within 100 to 1000 nM.
Turning to `O=c1[nH]c2ncc(-c3ccc(N4CCOCC4)cc3)nc2n1-c1ccc(O)cc1` [Example 116, 1-(4-hydroxyphenyl)-6-(4-morpholinophenyl)-1H-imidazo[4,5-b]pyrazin-2(3H)-one], the 50% inhibitory concentration (IC50) is 100 to 1000 nM.
Same read-out and setting: to `COc1cc(-c2cnc3c(c2)C(C)(C)C(=O)N3)cc(OC)c1OC` [Example 120, 3,3-dimethyl-5-(3,4,5-trimethoxyphenyl)-1H-pyrrolo[2,3-b]pyridin-2(3H)-one] belongs 100 to 1000 nM; to `COc1cc(-c2cnc3c(c2)C2(CCCC2)C(=O)N3)cc(OC)c1OC` [Example 121, 5′-(3,4,5-trimethoxyphenyl)spiro[cyclopentane-1,3′-pyrrolo[2,3-b]pyridin]-2′(1′H)-one], 100 to 1000 nM.
